The target in assay [1] is T1, LRRK2-NanoLuc with VCB protein (Homo sapiens, UniProt P40337+Q5S007).
T1 construct: host or cells: HEK293 (digitonin-permeabilized), recombinant VCB added
The assay can be described thus: NanoBRET-based ternary binding and cooperativity assay. The conditions noted are these: for IC50: compound preincubated with VCB, lysate of HEK293 cells, LRRK2 tracer; for cooperativity (α): IC50 ratio without/with VCB. The protocol:
(A). Schematic illustration of the binary and ternary LRRK2 engagement assays. […] The fractional occupancy of the tracer is plotted against the concentrations of the compounds and fitted into the “nonlinear regression, one site-log IC50” model in GraphPad to obtain the IC50 values. The IC50 ratio between the blue curve and red cure is calculated as cooperativity (α). […] The NanoBRET signal was plotted against the compounds’ concentrations and fitted into “nonlinear regression, Gaussian” model in GraphPad. Error bars are mean ± SEM from three biological independent experiments.
Titration of PROTACs to the lysed cells and LRRK2 tracer in the presence or absence of recombinant VCB protein (VHL complexed with elongin B–elongin C) gives ternary and binary binding affinities of PROTACs for LRRK2, respectively. Similarly, the ternary complex formation assay also used LRRK2-NanoLuc transiently expressed in HEK293 as the BRET donor, but the acceptor was recombinant VCB protein labeled with BODIPY^576/589via the NHS ester-activated cross-linking reaction. PROTACs that can bridge LRRK2 and VCB together will produce a BRET signal (Figure 10E).
The HEK293 cells were transfected with the LRRK2-NanoLuc fusion vector (Promega, NV3401) following Promega’s protocol and seeded into a white 384-well plate (Corning3570) at a density of 6000 cells/well. The cells were then treated with 50 μg/mL of digitonin, 125 nM of LRRK2 tracer, testing compounds at decreasing concentrations (11 concentrations with a 2-fold serial dilution starting from 10 μM) or testing compounds and VCB mix (11 concentrations with a 2-fold serial dilution starting from 10 μM compound). The first six concentrations of VCB start from 32 μM with a 2-fold dilution, while the last five concentrations of VCB were kept fixed at 1 μM. The NanoBRET NanoGlo Substrate (Promega, N157C) was added at concentrations recommended by the manufacturer’s protocol. In the maximum signal control samples (DMSO control), DMSO was added instead of testing compounds. In the minimum signal control samples (no tracer control), DMSO and LRRK2 tracer dilution buffer were used to replace testing compounds and LRRK2 tracer separately. The filtered luminescence was measured within 10 min following the addition of the substrate on a PHERAstar (BMG LABTECH) plate reader equipped with a 450 nm bandpass filter (donor) and a 600 nm long-pass filter (acceptor). The fractional occupancy was calculated according to the equation: fractional occupancy = (mBRETtesting compound – mBRETno tracer control)/(mBRETDMSO control – mBRETno tracer control).

For assay [2], the target named is T2, WT LRRK2 (Mus musculus, UniProt Q5S006).
T2 construct: endogenous in cells; host or cells: wild-type primary MEFs
Briefly: LRRK2 degradation in WT MEFs by Western blotting. It counts as cell-based. The method, then: (§1) These PROTACs were then biologically evaluated in mouse embryonic fibroblasts (MEFs) by Western blotting. Briefly, MEFs were treated with compounds at 33 nM and 1 μM for 4 h (Figure 2) and 24 h (Figure S2) separately, and the intracellular level of LRRK2, phosphorylated LRRK2 at Ser935, and phosphorylated Rab10 (pRab10) at Thr73 was determined. Rab10[5],[49] is one of the bona fide substrates of LRRK2, whose phosphorylation status is directly affected by the LRRK2 kinase activity and protein level. Phosphorylation of LRRK2 at Ser935 is a well-studied biomarker site used to assess the efficacy of type 1 LRRK2 inhibitors.[30]
(§2) Primary MEFs were generated as described in a previous study.[80] Briefly, the uterine horn was collected from adult female mice at day E12.5 and transferred to a 10 cm tissue culture dish containing cold PBS. Two forceps were used to tear the yolk sacs to isolate each embryo. Forceps were cleaned thoroughly with 70% ethanol between each embryo isolation. The embryos were culled, and a tissue piece was collected in a polymerase chain reaction (PCR) tube for genotyping. The red tissue of the embryo was removed, and the remainder was minced with a scalpel blade and incubated with a 7.5 mL trypsin–ethylenediaminetetraacetic acid (EDTA) solution for 10 min in a 37 °C, 5% CO2 tissue culture incubator. The dish was removed from the incubator and checked under a light microscope for single cells. Complete media (7.5 mL) was added to the trypsinized cells, and the cell suspension was transferred to a 15 mL Falcon tube and centrifuged at 1200 rpm for 5 min at room temperature. The trypsin was aspirated, the cell pellet was resuspended in a 5 mL fresh complete media, and the cell suspension was plated in a 60 mm tissue culture dish and incubated in a 37 °C, 5% CO2 tissue culture incubator. The MEFs at this stage were considered as passage 0 and were passaged and expanded for experimental use once the genotype was confirmed by allelic sequencing and immunoblotting. MEFs were cultured in Dulbecco’s modified Eagle’s medium (DMEM) containing 10% (v/v) fetal bovine serum (FBS), 2 mM L-glutamine, 100 U/mL penicillin, and 100 μg/mL streptomycin supplemented with 1× nonessential amino acids and 1 mM sodium pyruvate.
(§3) Culturing and passaging of adherent cell lines were carried out using an aseptic technique in CL1 or CL2 (for PBMC isolation) biological safety cabinets. All cells were incubated in a 37 °C incubator with 5% CO2. Cell lines were regularly tested for mycoplasma contamination. For Western blot assay, the cells were seeded in six-well plates. For immunoprecipitation of LRRK2, SH-SY5Y cells (cultured in DMEM-F12, supplemented with 15% (v/v) FBS, 100 U/mL penicillin and 100 μg/mL streptomycin, 1× nonessential amino acids, and 1 mM sodium pyruvate) were seeded in a 10 cm dish. All cells were treated with the indicated compounds such that the final concentration of DMSO was 0.1%. Following the treatment of cells with compounds at indicated concentrations and time periods, the media was removed and the cells were washed with PBS and lysed in a 100 μL ice-cold complete lysis buffer containing 50 mM tris–HCl pH 7.4, 1 mM EGTA, 10 mM 2-glycerophosphate, 50 mM sodium fluoride, 5 mM sodium pyrophosphate, 270 mM sucrose, supplemented with 1 μg/mL microcystin-LR, 1 mM sodium orthovanadate, complete EDTA-free protease inhibitor cocktail (Roche), and 1% (v/v) Triton X-100. The cells were immediately placed on ice and were scraped and collected into 1.5 mL Eppendorf tubes. Cell lysates were incubated on ice for 10 min prior to centrifugation at 15 000g at 4 °C for 15 min.
In general terms: Immunoblotting shows a protein as a band on a membrane.

Assay [3] concerns Rab10-pThr73. Briefly: Rab10 dephosphorylation in G2019S LRRK2 MEFs by Western blotting. The class given is cell-based, mouse. The method, then: as §1, §2, §3
[4] abbreviates: Mus musculus, 4 h, G2019S LRRK2 MEFs, read-out: EC50 G2019S pRab10.

Read-outs that look alike come from different tables or passages of the source.

T2 sequence (Q5S006 whole entry): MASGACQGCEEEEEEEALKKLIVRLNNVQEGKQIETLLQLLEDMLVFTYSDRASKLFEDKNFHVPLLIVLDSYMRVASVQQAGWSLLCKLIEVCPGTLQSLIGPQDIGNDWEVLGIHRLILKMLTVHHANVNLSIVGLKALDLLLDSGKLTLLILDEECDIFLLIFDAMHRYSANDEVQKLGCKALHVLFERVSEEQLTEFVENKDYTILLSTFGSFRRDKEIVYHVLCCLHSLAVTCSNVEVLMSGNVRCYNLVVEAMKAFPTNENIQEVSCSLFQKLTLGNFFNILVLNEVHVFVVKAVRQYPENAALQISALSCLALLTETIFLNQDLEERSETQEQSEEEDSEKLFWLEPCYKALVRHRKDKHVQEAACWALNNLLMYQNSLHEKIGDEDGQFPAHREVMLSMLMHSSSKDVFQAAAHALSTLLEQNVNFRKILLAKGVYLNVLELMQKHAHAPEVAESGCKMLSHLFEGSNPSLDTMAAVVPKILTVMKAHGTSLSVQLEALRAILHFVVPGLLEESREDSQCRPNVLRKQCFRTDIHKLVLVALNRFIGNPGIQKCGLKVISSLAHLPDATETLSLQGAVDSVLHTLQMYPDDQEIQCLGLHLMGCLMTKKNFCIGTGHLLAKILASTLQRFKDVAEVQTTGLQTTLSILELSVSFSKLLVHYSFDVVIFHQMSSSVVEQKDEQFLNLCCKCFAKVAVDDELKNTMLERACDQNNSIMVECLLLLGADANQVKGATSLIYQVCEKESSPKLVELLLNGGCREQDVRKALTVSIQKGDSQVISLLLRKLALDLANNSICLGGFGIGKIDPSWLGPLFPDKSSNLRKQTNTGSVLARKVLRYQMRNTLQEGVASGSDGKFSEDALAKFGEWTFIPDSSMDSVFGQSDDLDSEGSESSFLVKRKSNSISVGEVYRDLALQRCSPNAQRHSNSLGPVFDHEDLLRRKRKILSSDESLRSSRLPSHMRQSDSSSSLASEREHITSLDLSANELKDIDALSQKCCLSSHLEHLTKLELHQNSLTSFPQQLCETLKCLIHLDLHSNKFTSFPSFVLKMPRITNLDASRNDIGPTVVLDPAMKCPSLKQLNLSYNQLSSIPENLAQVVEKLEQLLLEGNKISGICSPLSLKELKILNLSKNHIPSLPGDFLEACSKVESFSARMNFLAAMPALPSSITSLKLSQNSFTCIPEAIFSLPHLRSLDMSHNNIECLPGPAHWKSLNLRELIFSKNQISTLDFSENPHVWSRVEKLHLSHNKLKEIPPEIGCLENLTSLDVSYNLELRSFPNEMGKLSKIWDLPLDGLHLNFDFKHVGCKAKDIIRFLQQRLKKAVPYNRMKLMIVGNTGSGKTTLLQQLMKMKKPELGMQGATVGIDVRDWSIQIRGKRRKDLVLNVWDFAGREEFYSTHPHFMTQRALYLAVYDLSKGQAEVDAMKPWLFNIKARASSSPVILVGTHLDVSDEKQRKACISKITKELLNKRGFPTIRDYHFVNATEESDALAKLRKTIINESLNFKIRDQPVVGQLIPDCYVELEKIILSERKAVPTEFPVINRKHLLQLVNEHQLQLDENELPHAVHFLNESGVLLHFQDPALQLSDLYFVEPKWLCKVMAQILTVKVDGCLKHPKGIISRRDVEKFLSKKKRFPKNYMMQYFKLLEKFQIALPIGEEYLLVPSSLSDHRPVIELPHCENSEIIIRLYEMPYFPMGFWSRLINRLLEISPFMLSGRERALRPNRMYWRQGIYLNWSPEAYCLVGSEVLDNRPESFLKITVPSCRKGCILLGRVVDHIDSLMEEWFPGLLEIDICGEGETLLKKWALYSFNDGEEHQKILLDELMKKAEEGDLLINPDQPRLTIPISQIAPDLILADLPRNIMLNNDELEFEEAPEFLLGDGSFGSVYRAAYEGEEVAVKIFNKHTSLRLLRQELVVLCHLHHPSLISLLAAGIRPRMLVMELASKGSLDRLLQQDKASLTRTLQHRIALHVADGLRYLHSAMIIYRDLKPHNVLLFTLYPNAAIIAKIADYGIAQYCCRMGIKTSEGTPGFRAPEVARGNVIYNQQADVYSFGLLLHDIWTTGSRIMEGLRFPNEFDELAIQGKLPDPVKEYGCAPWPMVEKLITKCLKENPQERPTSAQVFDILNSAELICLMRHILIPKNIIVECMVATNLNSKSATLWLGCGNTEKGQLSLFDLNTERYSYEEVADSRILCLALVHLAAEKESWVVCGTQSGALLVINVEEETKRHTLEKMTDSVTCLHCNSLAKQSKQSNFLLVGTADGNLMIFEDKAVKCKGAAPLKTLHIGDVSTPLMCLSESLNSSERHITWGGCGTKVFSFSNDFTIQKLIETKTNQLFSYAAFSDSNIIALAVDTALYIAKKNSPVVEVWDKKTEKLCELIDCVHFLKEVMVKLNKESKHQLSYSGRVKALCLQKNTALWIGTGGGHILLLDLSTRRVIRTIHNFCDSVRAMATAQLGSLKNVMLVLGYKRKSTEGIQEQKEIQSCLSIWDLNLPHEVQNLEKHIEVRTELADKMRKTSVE

Regarding `CNc1nc(Nc2ccc(C(=O)N3CCN(CCOCCOCCSC(C)(C)[C@H](NC(=O)C4(F)CC4)C(=O)N4C[C@H](O)C[C@H]4C(=O)NCc4ccc(-c5scnc5C)cc4)CC3)cc2OC)ncc1Cl` [SD75], the IC50 in assay [1] is 1400 nM. Besides, the Dmax at 1 µM in assay [2] (1 μM (1000 nM), read-out: Dmax (WT LRRK2), time-dependent degradation) amounted to 52%. The compound also displayed a Dmax in assay [2] (dose-dependent degradation, 24 h) of 51%. Moreover, in assay [3] (1 µM), the “GS-pRab10 percent label at the end of the time curve” value came out at 74% and the pRab10 dephosphorylated was 75–90%. The EC50 in assay [3] (Mus musculus, 24 h, G2019S LRRK2 MEFs, read-out: EC50 for the dephosphorylation of Rab10 (GS-pRab10)) is 379 nM.
Consider `CNc1nc(Nc2ccc(C(=O)N3CCN(C[C@H]4CC[C@H](CSC(C)(C)[C@H](NC(=O)C5(F)CC5)C(=O)N5C[C@H](O)CC5C(=O)NCc5ccc(-c6scnc6C)cc5)CC4)CC3)cc2OC)ncc1Cl` (stereo partly drawn) [XL01126, (2S,4R)-1-((R)-3-((((1R,4R)-4-((4-(4-((5-Chloro-4-(methylamino)pyrimidin-2-yl)amino)-3-methoxybenzoyl)piperazin-1-yl)methyl)cyclohexyl)methyl)thio)-2-(1-fluorocyclopropane-1-carboxamido)-3-methylbutanoyl)-4-hydroxy-N-(4-(4-methylthiazol-5-yl)benzyl)pyrrolidine-2-carboxamide], for which, in assay [1], the “cooperativity (α)” value is on record as 5.7 and the IC50 came to 350 nM. In addition, in assay [2] (4 h), the DC50 turned out to be 32 nM. Further, in assay [3] (Mus musculus, 33 nM/4 h, G2019S LRRK2 MEFs, read-out: pRab10 inhibited), the inhibition at 0.033 µM was > 60%. In addition, the half-maximal effective concentration (EC50) in assay [3] (setting [4]) came to 15 nM.
As to `CNc1nc(Nc2ccc(C(=O)N3CCN(C[C@H]4CC[C@@H](CSC(C)(C)[C@H](NC(=O)C5(F)CC5)C(=O)N5C[C@H](O)CC5C(=O)NCc5ccc(-c6scnc6C)cc5)CC4)CC3)cc2OC)ncc1Cl` (stereo partly shown) [XL01134], the “cooperativity (α)” value in assay [1] was 1.4. Also, the IC50 in assay [1] worked out at 790 nM; in assay [3] (Mus musculus, 4 h, G2019S LRRK2 MEFs, read-out: GS-pRab10 IC50), 12 nM. For the same compound, the Dmax at 0.3 µM in assay [2] (300 nM, read-out: Dmax,WT, time-dependent degradation) was 75%. The compound also gave a DC50 in assay [2] (4 h) of 32 nM. The pRab10 inhibited in assay [3] (33 nM/4 h, G2019S LRRK2 MEFs) is > 60%.
Consider `CNc1nc(Nc2ccc(C(=O)N3CCN(C[C@H]4CC[C@H](CSC(C)(C)[C@H](NC(=O)C5(F)CC5)C(=O)N5C[C@@H](O)C[C@H]5C(=O)NCc5ccc(-c6scnc6C)cc5)CC4)CC3)cc2OC)ncc1Cl` [cis-XL01126, (2S,4S)-1-((R)-3-((((1R,4R)-4-((4-(4-((5-Chloro-4-(methylamino)pyrimidin-2-yl)amino)-3-methoxybenzoyl)piperazin-1-yl)methyl)cyclohexyl)methyl)thio)-2-(1-fluorocyclopropane-1-carboxamido)-3-methylbutanoyl)-4-hydroxy-N-(4-(4-methylthiazol-5-yl)benzyl)pyrrolidine-2-carboxamide], for which the “degradation of WT LRRK2 (in words)” value in assay [2] (4 h) is “no degradation”. Further, the half-maximal effective concentration (EC50) in assay [3] (setting [4]) worked out at 116 nM.

One may read the IC50 as the concentration at which inhibition is half-maximal. By Dmax is commonly meant the greatest extent of degradation seen. As a reminder, the EC50 is the midpoint of the concentration-response curve. For orientation: DC50 means the midpoint of the concentration-degradation curve.

For the origin of these results see article PMC9501899 (Journal of the American Chemical Society, 2022).
